Assay results as given in PMC8398255, “Synthesis of 3,5-Bis(trifluoromethyl)phenyl-Substituted Pyrazole Derivatives as Potent Growth Inhibitors of Drug-Resistant Bacteria” (Molecules, 2021).
Converted amounts (≈) assume the structure as drawn. Read-outs that look alike come from different tables or passages of the source.

Tests used:
[1] = tested on: E. faecalis biofilms (Efs12); test: Biofilm eradication (MBEC), Calgary Biofilm Device; assay type: cell-based
Protocol: (§1) Minimum biofilm eradication concentration (MBEC) was determined using a Calgary device using the protocol reported elsewhere with some modifications. The Calgary device is a 96-well plate with a lid containing pegs to establish biofilms. Bacteria from an overnight plate culture were suspended to a 0.5 McFarland turbidity, then diluted 1:100 in a CAMHB containing 1% glucose which was inoculated in the 96 wells (150 μL in each well) and incubated at 35 °C for 24 h to establish biofilm on the pegs. The lid was then removed, washed with PBS in a fresh 96 well plate, then transferred to another 96-well plate containing 2-fold serial dilutions of the test compounds dissolved in PBS (150 μL total volume in each well). This plate was called the “challenge plate”. The challenge plate was incubated for an additional 24 h, and the lid was transferred to the next 96-well plate containing fresh CAMHB media with 1% glucose (180 μL) and further incubated for 24 h. […] All the compounds were tested in a minimum of three independent experiments.

Gram-positive bacteria = test: MIC across the tested strains; assay type: cell-based; conditions: against several bacterial strains
Protocol: (§2) Compounds were dissolved in dimethyl sulfoxide (DMSO) to achieve a starting concentration of 32 µg/mL as described by us previously. Compounds were further diluted two-fold across the 96-well honeycomb plate columns in cation adjusted Mueller Hinton broth (CAMHB), and bacterial culture was added. Plates were incubated for 18–20 h at 35 ℃ before determining the minimum concentrations at which wells had no visible turbidity to the naked eye. The MIC values were determined from at least a duplicate result obtained from three independent experiments using fresh bacterial cultures on different days.

[2] = tested on: S. aureus ATCC 33592 (Sa92); test: MIC, microdilution (CLSI); assay type: cell-based; conditions: Staphylococcus aureus, ATCC33592
Protocol: as §2

[3] = tested on: Bacillus subtilis ATCC 6623 (Bs); test: MIC, microdilution (CLSI); assay type: cell-based; conditions: ATCC6623
Protocol: as §2

[4] = tested on: S. aureus ATCC 700699 (Sa99); test: MIC, microdilution (CLSI); assay type: cell-based; conditions: Staphylococcus aureus, ATCC700699
Protocol: as §2

[5] = tested on: S. epidermidis ATCC 700296 (Se); test: MIC, microdilution (CLSI); assay type: cell-based; conditions: Staphylococcus epidermidis, ATCC700296
Protocol: as §2

[6] = tested on: S. aureus ATCC 33591 (Sa91); test: MIC, microdilution (CLSI); assay type: cell-based; conditions: Staphylococcus aureus, ATCC33591
Protocol: as §2

[7] = tested on: E. faecium ATCC 700221 (Ef21); test: MIC, microdilution (CLSI); assay type: cell-based; conditions: Enterococcus faecium, ATCC 700221 / VRE
Protocol: as §2

[8] = tested on: S. aureus BAA-2312 (Sa12); test: MIC, microdilution (CLSI); assay type: cell-based; conditions: Staphylococcus aureus, BAA2312
Protocol: as §2

[9] = tested on: S. aureus ATCC 25923 (Sa23); test: MIC, microdilution (CLSI); assay type: cell-based; conditions: Staphylococcus aureus, ATCC25923
Protocol: as §2

[10] = tested on: E. faecalis ATCC 29212 (Ef12); test: MIC, microdilution (CLSI); assay type: cell-based; conditions: Enterococcus faecalis, ATCC29212
Protocol: as §2

[11] = tested on: E. faecalis ATCC 51299 (Ef99); test: MIC, microdilution (CLSI); assay type: cell-based; conditions: Enterococcus faecalis, ATCC 51299 / VRE
Protocol: as §2

[12] = tested on: S. aureus biofilms (Sa23); test: Biofilm eradication (MBEC), Calgary Biofilm Device; assay type: cell-based, Staphylococcus aureus
Protocol: as §1

[13] = tested on: S. aureus ATCC 700699 persisters; test: Persister viability assay; assay type: cell-based, Staphylococcus aureus; conditions: 32× MIC, 4 h; for activity against persisters: S. aureus ATCC 700699 persisters
Protocol: (§3) The persister assay was performed following the methodology described previously. Briefly, for persister viability assays, S. aureus ATCC 700699 strain (MRSA) was grown to stationary phase in CAMHB medium by shaking at 200 rpm in a shaking incubator for 24 h at 35 °C. […] After incubation, 400 µL aliquot was washed, serially diluted in PBS, and plated in blood agar plate for viable colony count.

[14] = tested on: S. aureus and E. faecalis biofilms; test: Biofilm eradication, S. aureus and E. faecalis; assay type: cell-based
Protocol: as §1

[15] = Cytotoxicity assay (resazurin); assay type: cell-based; conditions: human, HEK-293 cells, 24 h treatment, n = 3
Protocol: The human embryonic kidney cell line (HEK-293) was used to assess the cytotoxicity of the antibiotics as described by us previously. HEK-293 cells were cultured in Dulbecco’s modified eagle’s medium (DMEM) containing 10% Fetal Bovine Serum (FBS) and incubated at 37 °C in the presence of 5% carbon dioxide. HEK-293 cells were cultured in 96-well black plates with 6000 cells per well for the first 24 h followed by treatment with a range of concentrations of antibiotics dissolved in DMSO for the next 24 h. After the second period of incubation, resazurin (40 µL of 0.15 mg/mL) was added to each well and incubated for an additional 4 h. Reduction of resazurin was measured fluorometrically with excitation wavelength at 560 nm and emission at 590 nm using BioTek™ Cytation™5 plate reader. Percentage viability of HEK cells for each range of concentrations was calculated, taking the fluorescence value of the wells treated with DMSO as a reference, using Microsoft® Excel® for Office 365 MSO. IC50 values were computed using the calculated percentage viability values through data processing in Graphpad Prism 7 for Windows, Version 7.04.

[16] = tested on: MRSA persisters (S. aureus ATCC 700699); test: Persister Time Kill Assay; assay type: cell-based, Staphylococcus aureus; conditions: for decrease of persister cells: 2× MIC, 8 h; for persisters eradicated: within 8 h at all the 4× MIC, 8× MIC and 16× MIC concentrations
Protocol: as §3
Likewise, for persister time-kill assays, the persister cells were treated at varied concentrations and incubated with shaking. At the start and every 2 h until 8 h, 400 µL samples were washed, serially diluted, and plated on blood agar using the 6 × 6 drop plate method. Plates were incubated for 18–20 h at 35 °C, before the colonies were counted to calculate CFU/mL. All the treatments were performed in triplicates.

[17] = tested on: MRSA (S. aureus ATCC 700699); test: Time Kill Assay; assay type: cell-based, Staphylococcus aureus; conditions: 4× MIC, positive controls
[18] = Sa92, methicillin-resistant S. aureus ATCC 33592, n = 3, read-out: MIC
[19] = Bs, Bacillus subtilis ATCC 6623, n = 3, read-out: MIC
[20] = Sa99, methicillin-resistant S. aureus ATCC 700699, n = 3, read-out: MIC
[21] = Se, S. epidermidis ATCC 700296, n = 3, read-out: MIC
[22] = Sa91, methicillin-resistant S. aureus ATCC 33591, n = 3, read-out: MIC
[23] = Ef21, vancomycin-resistant (VRE) E. faecium ATCC 700221, n = 3, read-out: MIC
[24] = Sa12, methicillin-resistant S. aureus BAA-2312, n = 3, read-out: MIC
[25] = Sa23, antibiotic susceptible S. aureus ATCC 25923, n = 3, read-out: MIC
[26] = Ef12, antibiotic susceptible E. faecalis ATCC 29212, n = 3, read-out: MIC
[27] = Ef99, vancomycin-resistant (VRE) E. faecalis ATCC 51299, n = 3, read-out: MIC

| Compound | MBEC [1] [µg/mL] | MIC [2, 18] [µg/mL] | MIC [3, 19] [µg/mL] | MIC [4, 20] [µg/mL] | MIC [5, 21] [µg/mL] | MIC [6, 22] [µg/mL] | MIC [7, 23] [µg/mL] | MIC [8, 24] [µg/mL] | MIC [9, 25] [µg/mL] | MIC [10, 26] [µg/mL] | MIC [11, 27] [µg/mL] | MBEC [12] [µg/mL] | activity against persisters [13] | IC50 at 24 h [15] [µg/mL] | decrease of persister cells [16] [log value] | persisters eradicated [16] | reduction of the population of persisters compared to the positive controls [13] [log values] | MBEC values [14] [µg/mL] | time to eliminate >99.9% CFUs [17] [h] | other results |
| --- | --- | --- | --- | --- | --- | --- | --- | --- | --- | --- | --- | --- | --- | --- | --- | --- | --- | --- | --- | --- |
| O=C(O)c1ccc(-n2cc(CNc3ccc(Oc4ccccc4)cc3)c(-c3cc(C(F)(F)F)cc(C(F)(F)F)c3)n2)cc1 [Compound 5, 4-[3-[3,5-Bis(trifluoromethyl)phenyl]-4-[(4-phenoxyanilino)methyl]pyrazol-1-yl] benzoic acid] | >32 | 1 (≈ 1.67 µM) | 2 (≈ 3.35 µM) | 2 (≈ 3.35 µM) | 4 (≈ 6.69 µM) | 1 (≈ 1.67 µM) | 1 (≈ 1.67 µM) | 2 (≈ 3.35 µM) | 1 (≈ 1.67 µM) | 2 (≈ 3.35 µM) | 1 (≈ 1.67 µM) | >32 | partial activity | 9.15 (≈ 15.3 µM) | – | – | – | – | – | MIC (Gram-positive bacteria): 1 µg/mL (≈ 1.67 µM); biofilm eradication property [14]: did not show any appreciable biofilm eradication property |
| O=C(O)c1ccc(-n2cc(CNc3ccc(Br)cc3)c(-c3cc(C(F)(F)F)cc(C(F)(F)F)c3)n2)cc1 [Compound 11, 4-[3-[3,5-Bis(trifluoromethyl)phenyl]-4-[(4-bromoanilino)methyl]pyrazol-1-yl] benzoic acid] | 4 | 1 (≈ 1.71 µM) | 1 (≈ 1.71 µM) | 2 (≈ 3.42 µM) | 2 (≈ 3.42 µM) | 1 (≈ 1.71 µM) | 1 (≈ 1.71 µM) | 1 (≈ 1.71 µM) | 2 (≈ 3.42 µM) | 2 (≈ 3.42 µM) | 1 (≈ 1.71 µM) | – | very effective | 7 to 8 (≈ 12 to 13.7 µM) | 1 | more than 3 log values | 4 | – | – | – |
| O=C(O)c1ccc(-n2cc(CNc3cc(Cl)c(F)c(Cl)c3)c(-c3cc(C(F)(F)F)cc(C(F)(F)F)c3)n2)cc1 [Compound 28, 4-[3-[3,5-Bis(trifluoromethyl)phenyl]-4-[(3,5-dichloro-4-fluoro-anilino)methyl]pyraz-ol-1-yl] benzoic acid] | 2 | 1 (≈ 1.69 µM) | 1 (≈ 1.69 µM) | 1 (≈ 1.69 µM) | 2 (≈ 3.38 µM) | 1 (≈ 1.69 µM) | 1 (≈ 1.69 µM) | 1 (≈ 1.69 µM) | 1 (≈ 1.69 µM) | 2 (≈ 3.38 µM) | 2 (≈ 3.38 µM) | – | very effective | 7 to 8 (≈ 11.8 to 13.5 µM) | – | – | – | ≥ 1 | – | – |
| O=C(O)c1ccc(-n2cc(CNc3ccc(Br)c(Cl)c3F)c(-c3cc(C(F)(F)F)cc(C(F)(F)F)c3)n2)cc1 [Compound 29, 4-[3-[3,5-Bis(trifluoromethyl)phenyl]-4-[(4-bromo-3-chloro-2-fluoro-anilino)methyl]pyrazol-1-yl] benzoic acid] | 2 | 1 (≈ 1.57 µM) | 2 (≈ 3.14 µM) | 2 (≈ 3.14 µM) | 2 (≈ 3.14 µM) | 1 (≈ 1.57 µM) | 1 (≈ 1.57 µM) | 1 (≈ 1.57 µM) | 2 (≈ 3.14 µM) | 2 (≈ 3.14 µM) | 2 (≈ 3.14 µM) | – | very effective | 7 to 8 (≈ 11 to 12.6 µM) | ~2 | more than 3 log values | 4 | ≥ 1 | – | – |
| CCCCCCCCCC(=O)N[C@@H](Cc1c[nH]c2ccccc12)C(=O)N[C@H](CC(N)=O)C(=O)N[C@@H](CC(=O)O)C(=O)N[C@@H]1C(=O)NCC(=O)N[C@@H](CCCN)C(=O)N[C@@H](CC(=O)O)C(=O)N[C@H](C)C(=O)N[C@@H](CC(=O)O)C(=O)NCC(=O)N[C@H](CO)C(=O)N[C@@H]([C@H](C)CC(=O)O)C(=O)N[C@@H](CC(=O)c2ccccc2N)C(=O)O[C@@H]1C [D, Daptomycin, reference compound] | >32 | 2 (≈ 1.23 µM) | 2 (≈ 1.23 µM) | 8 (≈ 4.94 µM) | 2 (≈ 1.23 µM) | 2 (≈ 1.23 µM) | 16 (≈ 9.87 µM) | 2 (≈ 1.23 µM) | 2 (≈ 1.23 µM) | 16 (≈ 9.87 µM) | 16 (≈ 9.87 µM) | >32 | failed to demonstrate persister kill activity | – | – | – | – | – | 6 | – |
| CN[C@H](CC(C)C)C(=O)N[C@H]1C(=O)N[C@@H](CC(N)=O)C(=O)N[C@H]2C(=O)N[C@H]3C(=O)N[C@H](C(=O)N[C@H](C(=O)O)c4cc(O)cc(O)c4-c4cc3ccc4O)[C@H](O)c3ccc(c(Cl)c3)Oc3cc2cc(c3O[C@@H]2O[C@H](CO)[C@@H](O)[C@H](O)[C@H]2O[C@H]2C[C@](C)(N)[C@H](O)[C@H](C)O2)Oc2ccc(cc2Cl)[C@H]1O [V, Vancomycin, reference compound] | >32 | – | – | – | – | – | – | – | – | – | – | >32 | failed to demonstrate persister kill activity | – | – | – | – | – | 8 | MIC [2]: 2 µg/mL (≈ 1.38 µM); MIC ([3]; Bacillus subtilis): 0.25 µg/mL (≈ 0.173 µM); MIC [4]: 4 µg/mL (≈ 2.76 µM); MIC [5]: 2 µg/mL (≈ 1.38 µM); MIC [6]: 2 µg/mL (≈ 1.38 µM); MIC [7]: > 32 µg/mL; MIC [8]: 0.5 µg/mL (≈ 0.345 µM); MIC [9]: 1 µg/mL (≈ 0.69 µM); MIC [10]: 2 µg/mL (≈ 1.38 µM); MIC [11]: > 32 µg/mL |
